According to patent US8883778B2, “Cyclic inhibitors of 11 beta-hydroxysteroid dehydrogenase 1” (Vitae Pharmaceuticals, Inc., priority 2009, dated 2014):

Biological target: 11β-HSD1 (Homo sapiens, UniProt P28845)
Experiment: Inhibition of a microsomal preparation of 11β-HSD1, scintillation proximity assay
Format: biochemical
Set-up: expressed in transfected cells; host or cells: CHO cells (microsomes)
Conditions: microsomes from CHO cells overexpressing human 11β-HSD1; for inhibition at 0.1 µM: at 100 nM
Description: All reactions were carried out at rt in 96 well clear flexible PET Microbeta plates (PerkinElmer). […] After a 10 minute pre-incubation, 50 μL of enzyme solution containing microsomes isolated from CHO cells overexpressing human 11β-HSD1 (10-20 μg/ml of total protein) was added, and the plates were incubated for 90 minutes at rt. The reaction was stopped by adding 50 μl of the SPA beads suspension containing 10 μM 18β-glycyrrhetinic acid, 5 mg/ml protein A coated YSi SPA beads (GE Healthcare) and 3.3 μg/ml of anti-cortisol antibody (East Coast Biologics) in Superblock buffer (Bio-Rad). The plates were shaken for 120 minutes at rt, and the SPA signal corresponding to [^3H]cortisol was measured on a Microbeta plate reader.

Chain of 11β-HSD1 (P28845 whole entry): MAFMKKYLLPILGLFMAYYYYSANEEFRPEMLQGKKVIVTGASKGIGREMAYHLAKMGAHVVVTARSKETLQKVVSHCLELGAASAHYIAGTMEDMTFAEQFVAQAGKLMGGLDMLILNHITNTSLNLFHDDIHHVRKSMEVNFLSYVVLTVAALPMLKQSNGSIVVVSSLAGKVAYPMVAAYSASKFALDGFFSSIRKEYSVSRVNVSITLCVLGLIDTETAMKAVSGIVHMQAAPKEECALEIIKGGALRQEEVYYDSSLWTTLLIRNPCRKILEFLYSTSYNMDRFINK

| inhibition at 0.1 µM [%] | IC50 [nM] | Compound |
| --- | --- | --- |
| 63.7 | 53.4 | C[C@@H](c1ccc(C#CC(C)(C)N)cc1)N1CC[C@](CC(C)(C)O)(c2ccccc2)OC1=O [Example 12, (S)-3-((S)-1-(4-(3-amino-3-methylbut-1-ynyl)phenyl)ethyl)-6-(2-hydroxy-2-methylpropyl)-6-phenyl-1,3-oxazinan-2-one] |
| 97.9 | 1.4 | C[C@@H](c1ccc(C#Cc2cc[nH]c(=O)c2)cc1)N1CC[C@](CC(C)(C)O)(c2ccccc2)OC1=O [Example 29, (S)-6-(2-hydroxy-2-methylpropyl)-3-((S)-1-(4-((2-oxo-1,2-dihydropyridin-4-yl)ethynyl)phenyl)ethyl)-6-phenyl-1,3-oxazinan-2-one] |
| 93.5 | 5.2 | C[C@@H](c1ccc(C#CC(C)(C)C(=O)NC2CC2)cc1)N1CC[C@](CC(C)(C)O)(c2ccccc2)OC1=O [Example 7, N-cyclopropyl-4-(4-((S)-1-((S)-6-(2-hydroxy-2-methylpropyl)-2-oxo-6-phenyl-1,3-oxazinan-3-yl)ethyl)phenyl)-2,2-dimethylbut-3-ynamide] |
| 93.6 | 1.8 | C=C(C)C[C@]1(c2ccccc2)CCN([C@@H](C)c2ccc(C#CC(C)(C)NS(C)(=O)=O)cc2)C(=O)O1 [Example 22, N-(2-methyl-4-(4-((S)-1-((R)-6-(2-methylallyl)-2-oxo-6-phenyl-1,3-oxazinan-3-yl)ethyl)phenyl)but-3-yn-2-yl)methanesulfonamide] |
| 84.7 | 6.9 | C[C@@H](c1ccc(C#CC2(O)CCOCC2)cc1)N1CC[C@](CC(C)(C)O)(c2ccccc2)OC1=O [Example 10, (S)-6-(2-hydroxy-2-methylpropyl)-3-((S)-1-(4-((4-hydroxytetrahydro-2H-pyran-4-yl)ethynyl)phenyl)ethyl)-6-phenyl-1,3-oxazinan-2-one] |
| 84.9 | 11.9 | CC(=O)NC(C)(C)C#Cc1ccc([C@H](C)N2CC[C@](CC(C)(C)O)(c3ccccc3)OC2=O)cc1 [Example 17, N-(4-(4-((S)-1-((S)-6-(2-hydroxy-2-methylpropyl)-2-oxo-6-phenyl-1,3-oxazinan-3-yl)ethyl)phenyl)-2-methylbut-3-yn-2-yl)acetamide] |
| 92.4 | 2.4 | COC(=O)NC1(C#Cc2ccc([C@H](C)N3CC[C@](CC(C)(C)O)(c4ccccc4)OC3=O)cc2)CCCCC1 [Example 15, Methyl 1-((4-((S)-1-((S)-6-(2-hydroxy-2-methylpropyl)-2-oxo-6-phenyl-1,3-oxazinan-3-yl)ethyl)phenyl)ethynyl)cyclohexylcarbamate] |

Second part, the compound before the results:

| Compound | inhibition at 0.1 µM [%] | IC50 [nM] |
| --- | --- | --- |
| COC(=O)N1CC(O)(C#Cc2ccc([C@H](C)N3CC[C@](CC(C)(C)O)(c4ccccc4)OC3=O)cc2)C1 [Example 26, Methyl 3-hydroxy-3-((4-((S)-1-((S)-6-(2-hydroxy-2-methylpropyl)-2-oxo-6-phenyl-1,3-oxazinan-3-yl)ethyl)phenyl)ethynyl)azetidine-1-carboxylate] | 95.9 | 2.8 |
| C[C@@H](c1ccc(C#CC2(O)CNC2)cc1)N1CC[C@](CC(C)(C)O)(c2ccccc2)OC1=O [Example 24, (S)-6-(2-hydroxy-2-methylpropyl)-3-((S)-1-(4-((3-hydroxyazetidin-3-yl)ethynyl)phenyl)ethyl)-6-phenyl-1,3-oxazinan-2-one] | 56.1 | 62.3 |
| COC(=O)NC(C)(C)C#Cc1ccc([C@H](C)N2CC[C@](CC(C)(C)O)(c3ccccc3)OC2=O)cc1 [Example 18, methyl 4-(4-((S)-1-((S)-6-(2-hydroxy-2-methylpropyl)-2-oxo-6-phenyl-1,3-oxazinan-3-yl)ethyl)phenyl)-2-methylbut-3-yn-2-ylcarbamate] | 94.5 | 3.7 |
| CNC(=O)NC(C)(C)C#Cc1ccc([C@H](C)N2CC[C@](CC(C)(C)O)(c3ccccc3)OC2=O)cc1 [Example 20, 1-(4-(4-((S)-1-((S)-6-(2-hydroxy-2-methylpropyl)-2-oxo-6-phenyl-1,3-oxazinan-3-yl)ethyl)phenyl)-2-methylbut-3-yn-2-yl)-3-methylurea] | 92.2 | 4.2 |
| C[C@@H](c1ccc(C#CC(C)(C)NC(N)=O)cc1)N1CC[C@](CC(C)(C)O)(c2ccccc2)OC1=O [Example 19, 1-(4-(4-((S)-1-((S)-6-(2-hydroxy-2-methylpropyl)-2-oxo-6-phenyl-1,3-oxazinan-3-yl)ethyl)phenyl)-2-methylbut-3-yn-2-yl)urea] | 97.6 | 2.4 |
| C[C@@H](c1ccc(C#CC2(N)CCCCC2)cc1)N1CC[C@](CC(C)(C)O)(c2ccccc2)OC1=O [Example 13, (S)-3-((S)-1-(4-((1-aminocyclohexyl)ethynyl)phenyl)ethyl)-6-(2-hydroxy-2-methylpropyl)-6-phenyl-1,3-oxazinan-2-one] | 82.5 | 12.4 |
| C[C@@H](c1ccc(C#CC2(O)CCCC2)cc1)N1CC[C@](CC(C)(C)O)(c2ccccc2)OC1=O [Example 2, (S)-6-(2-hydroxy-2-methylpropyl)-3-((S)-1-(4-((1-hydroxycyclopentyl)ethynyl)phenyl)ethyl)-6-phenyl-1,3-oxazinan-2-one] | 89.1 | 1.9 |
| C[C@@H](c1ccc(C#CC(C)(C)NS(C)(=O)=O)cc1)N1CC[C@](CC(C)(C)O)(c2ccccc2)OC1=O [Example 21, N-(4-(4-((S)-1-((S)-6-(2-hydroxy-2-methylpropyl)-2-oxo-6-phenyl-1,3-oxazinan-3-yl)ethyl)phenyl)-2-methylbut-3-yn-2-yl)methanesulfonamide] | 93.7 | 3.4 |
| C[C@@H](c1ccc(C#CC(C)(C)N2CCOC2=O)cc1)N1CC[C@](CC(C)(C)O)(c2ccccc2)OC1=O [Example 3, (S)-6-(2-hydroxy-2-methylpropyl)-3-((S)-1-(4-(3-methyl-3-(2-oxooxazolidin-3-yl)but-1-ynyl)phenyl)ethyl)-6-phenyl-1,3-oxazinan-2-one] | 99.8 | 1.1 |
| C[C@@H](c1ccc(C#Cc2ccccn2)cc1)N1CC[C@](CC(C)(C)O)(c2ccccc2)OC1=O [Example 9, (S)-6-(2-hydroxy-2-methylpropyl)-6-phenyl-3-((S)-1-(4-(pyridin-2-ylethynyl)phenyl)ethyl)-1,3-oxazinan-2-one] | 96.6 | 1 |
| CC(=O)NC1(C#Cc2ccc([C@H](C)N3CC[C@](CC(C)(C)O)(c4ccccc4)OC3=O)cc2)CCCCC1 [Example 14, N-(1-((4-((S)-1-((S)-6-(2-hydroxy-2-methylpropyl)-2-oxo-6-phenyl-1,3-oxazinan-3-yl)ethyl)phenyl)ethynyl)cyclohexyl)acetamide] | 89.8 | 4.2 |
| C[C@@H](c1ccc(C#CC(C)(C)NC(=O)N(C)C)cc1)N1CC[C@](CC(C)(C)O)(c2ccccc2)OC1=O [Example 23, 3-(4-(4-((S)-1-((S)-6-(2-hydroxy-2-methylpropyl)-2-oxo-6-phenyl-1,3-oxazinan-3-yl)ethyl)phenyl)-2-methylbut-3-yn-2-yl)-1,1-dimethylurea] | 86 | 12.3 |
